The text below walks through data of patent US20240083892A1 (BISICHEM CO., LTD., priority 2021, published 2024).

Molecules are shown by their SMILES.

For assay [1], the target named is T1, RIPK1 (Homo sapiens, UniProt Q13546).
T1 construct: endogenous in cells; host or cells: HT-29 (KCLB 30038)
T1 sequence (Q13546 1-671): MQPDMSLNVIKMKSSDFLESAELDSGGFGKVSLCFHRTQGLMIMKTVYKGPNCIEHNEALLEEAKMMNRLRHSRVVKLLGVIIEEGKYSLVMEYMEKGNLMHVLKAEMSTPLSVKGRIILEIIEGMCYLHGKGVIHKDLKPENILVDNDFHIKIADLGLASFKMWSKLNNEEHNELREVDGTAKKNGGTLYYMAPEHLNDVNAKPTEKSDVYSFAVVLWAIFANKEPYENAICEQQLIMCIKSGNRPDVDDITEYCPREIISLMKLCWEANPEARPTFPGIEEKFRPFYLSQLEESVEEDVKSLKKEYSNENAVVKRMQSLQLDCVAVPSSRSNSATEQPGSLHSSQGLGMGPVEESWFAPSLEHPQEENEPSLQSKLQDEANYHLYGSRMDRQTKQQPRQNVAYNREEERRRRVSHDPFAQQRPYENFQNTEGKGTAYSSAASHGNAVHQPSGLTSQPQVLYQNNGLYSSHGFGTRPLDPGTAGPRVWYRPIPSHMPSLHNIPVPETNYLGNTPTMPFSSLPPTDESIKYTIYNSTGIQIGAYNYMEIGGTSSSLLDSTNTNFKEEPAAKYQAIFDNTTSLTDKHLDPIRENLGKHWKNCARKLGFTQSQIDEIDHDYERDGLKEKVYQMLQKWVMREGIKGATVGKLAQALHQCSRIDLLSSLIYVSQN
In words: Immunoblotting of TNFα induced phospho-RIPK1 (ser 166) levels. Format: cell-based. The settings on record: HMC3 cells; Z-VAD-FMK, human TNFα 20 ng/ml, SM-164 100 nM; 7 h, serum free media; read-out: Cell-base RIPK1 activity: phspho-RIPK1 (Ser166). How it is done: (§1) Human colon carcinoma cell HT-29 (KCLB 30038), BV2 mouse microglial cell (cell was a kind gift from Dr. Nak-Yun Sung, Senior researcher at Korea Prime Pharmacy CO., LTD.) and human microglial cell HMC3 (ATCC® CRL-3304™). HT-29 cell was grown in Roswell Park Memorial Institute (RPMI) 1640, BV2 cell was grown in Dulbecco's Modified Eagle's Medium (DMEM) and HMC3 cell was grown in Minimum Essential Media Eagle (MEM) supplemented with 10% fetal bovine serum and 1% mixture of penicillin and streptomycin (Gibco). Cells were maintained at 37° C. in a humidified 5% CO2 atmosphere.
Biological activity of the compounds of RIPK1 inhibitor was determined by measuring their ability to inhibitor TNFα induced phospho-RIPK1 (ser 166) levels, phospho-RIPK3 levels, phospho-MLKL levels in HMC3 cells. Cells were pretreated with Z-VAD-FMK […]. After 30 min, human TNFα 20 ng/ml, SM-164 100 nM and RIPK1 inhibitor (0.1, 1, 10 nM) were treated for 7 h under serum free media. Cells were lysed with cold lysis buffer containing 25 mM HEPES pH 7.6, […] NaCl, 1% NP40, 1% sodium deoxycholate, 0.1% SDS, and protease inhibitor mixture (Bimake, Houston, USA) using sonicators. The cells were centrifuged at 15,000 rpm, 4° C. for 5 min. After protein concentration of the lysates (supernatants) was quantified using BCA assay (Thermo Fisher Scientific, Waltham, USA), lysates were mixed with LDS sample buffer and heating at […] for 10 min. (Invitrogen, California, USA). […] The membranes are placed in an image analyzer (Imagequant, LAS 500, GE Healthcare), connected to a computer which allows the image generation (software Image reader LAS 500).

Assay [2] addresses T1, RIPK1. In words: Cell-based necroptosis assay for RIPK1 activity (cell viability by CCK-8). As to conditions: HT-29 cells; Z-VAD-FMK 20 μM, human TNFα 10 ng/ml, SM-164 100 nM; 24 h; read-out: Cell-base RIPK1 activity: Necroptosis. How it is done:
as §1
To measure the activity of RIPK1 inhibitor in necroptotic cells, HT-29 cells were treated by control DMSO, human TNFα (Peprotech, Rocky Hill, USA), SM-164 (Biovision, California, USA) and a pan-caspase inhibitor Z-VAD-FMK (Invivogen, San Diego, USA). Cells were pretreated with Z-VAD-FMK 20 μM. After 30 min, human TNFα 10 ng/ml, SM-164 100 nM and RIPK1 Inhibitor (0.0001, 0.001, 0.01, 0.02, 0.05, 0.1, 1, 10 uM) were treated for 24 h. Cell viability was measured by Cell Counting Kit 8 (CCK-8) (Dong-in, Seoul, Korea).

Turning to `CN1C(=O)[C@@H](NC(=O)n2cc(Cc3cccc(F)c3)cn2)COc2ccc(O[C@H]3CC[C@H](O)CC3)cc21` [Example 35, 4-(3-fluorobenzyl)-N—((S)-7-(((1r,4S)-4-hydroxycyclohexyl)oxy)-5-methyl-4-oxo-2,3,4,5-tetrahydrobenzo[b][1,4]oxazepin-3-yl)-1H-pyrazole-1-carboxamide], the IC50 in assay [1] and in assay [2] was less than 10 nM throughout.

`CN1C(=O)[C@@H](NC(=O)n2cc(Cc3cccc(F)c3)cn2)COc2ccc(OCC#CC3(O)CCCCC3)cc21` [Example 23, (S)-4-(3-fluorobenzyl)-N-(7-((3-(1-hydroxycyclohexyl)prop-2-yn-1-yl)oxy)-5-methyl-4-oxo-2,3,4,5-tetrahydrobenzo[b][1,4]oxazepin-3-yl)-1H-pyrazole-1-carboxamide]: the IC50 in assay [1] and in assay [2] was less than 10 nM each time.

Turning to `CN1C(=O)[C@@H](NC(=O)n2cc(Cc3cccc(F)c3)cn2)COc2ccc(OCC(=O)N3CCC(F)(F)CC3)cc21` [Example 38, (S)—N-(7-(2-(4,4-difluoropiperidin-1-yl)-2-oxoethoxy)-5-methyl-4-oxo-2,3,4,5-tetrahydrobenzo[b][1,4]oxazepin-3-yl)-4-(3-fluorobenzyl)-1H-pyrazole-1-carboxamide], the IC50 in assay [1] and in assay [2] was less than 10 nM in each case.

As to `CN1C(=O)[C@@H](NC(=O)n2cc(Cc3cccc(F)c3)cn2)COc2ccc(OCC(=O)NC3CC3)cc21` [Example 51, (S)—N-(7-(2-(cyclopropylamino)-2-oxoethoxy)-5-methyl-4-oxo-2,3,4,5-tetrahydrobenzo[b][1,4]oxazepin-3-yl)-4-(3-fluorobenzyl)-1H-pyrazole-1-carboxamide], the IC50 in assay [1] and in assay [2] was less than 10 nM throughout.

As for `CN1C(=O)[C@@H](NC(=O)n2cc(Cc3cccc(F)c3)cn2)COc2ccc(OCC(O)c3ccncc3)cc21` (stereo partly drawn) [Example 71, 4-(3-fluorobenzyl)-N-((3S)-7-(2-hydroxy-2-(pyridin-4-yl)ethoxy)-5-methyl-4-oxo-2,3,4,5-tetrahydrobenzo[b][1,4]oxazepin-3-yl)-1H-pyrazole-1-carboxamide], the IC50 in assay [1] and in assay [2] was less than 10 nM each time.

Consider `CN1C(=O)[C@@H](NC(=O)n2cc(Cc3cccc(F)c3)cn2)COc2ccc(OCCCC3(O)CCCCC3)cc21` [Example 27, (S)-4-(3-fluorobenzyl)-N-(7-(3-(1-hydroxycyclohexyl)propoxy)-5-methyl-4-oxo-2,3,4,5-tetrahydrobenzo[b][1,4]oxazepin-3-yl)-1H-pyrazole-1-carboxamide], for which the IC50 in assay [1] and in assay [2] was less than 10 nM each time.

As to `CN1C(=O)[C@@H](NC(=O)n2cc(Cc3cccc(F)c3)cn2)COc2ccc(OCc3nc(C(C)(C)O)cs3)cc21` [Example 66, (S)-4-(3-fluorobenzyl)-N-(7-((4-(2-hydroxypropan-2-yl)thiazol-2-yl)methoxy)-5-methyl-4-oxo-2,3,4,5-tetrahydrobenzo[b][1,4]oxazepin-3-yl)-1H-pyrazole-1-carboxamide], the IC50 in assay [1] and in assay [2] was less than 10 nM throughout.

Consider `CN1C(=O)[C@@H](NC(=O)n2cc(Cc3cccc(F)c3)cn2)COc2ccc(OCC(=O)N3CCOCC3)cc21` [Example 39, (S)-4-(3-fluorobenzyl)-N-(5-methyl-7-(2-morpholino-2-oxoethoxy)-4-oxo-2,3,4,5-tetrahydrobenzo[b][1,4]oxazepin-3-yl)-1H-pyrazole-1-carboxamide], for which the IC50 in assay [1] and in assay [2] was less than 10 nM each time.

`CN1C(=O)[C@@H](NC(=O)n2cc(Cc3cccc(F)c3)cn2)COc2ccc(OCCN3CCC(C)(O)CC3)cc21` [Example 18, (S)-4-(3-fluorobenzyl)-N-(7-(2-(4-hydroxy-4-methylpiperidin-1-yl)ethoxy)-5-methyl-4-oxo-2,3,4,5-tetrahydrobenzo[b][1,4]oxazepin-3-yl)-1H-pyrazole-1-carboxamide]: the IC50 in assay [1] and in assay [2] was less than 10 nM each time.

Take `CN1C(=O)[C@@H](NC(=O)n2cc(Cc3cccc(F)c3)cn2)COc2ccc(OCc3ccccc3)cc21` [Example 56, (S)—N-(7-(benzyloxy)-5-methyl-4-oxo-2,3,4,5-tetrahydrobenzo[b][1,4]oxazepin-3-yl)-4-(3-fluorobenzyl)-1H-pyrazole-1-carboxamide]: the IC50 in assay [1] and in assay [2] was less than 10 nM in each case.

Consider `CN(C(=O)c1ccc2c(c1)N(C)C(=O)[C@@H](NC(=O)n1cc(Cc3cccc(F)c3)cn1)CO2)c1ccncc1` [Example 12, (S)-3-(4-(3-fluorobenzyl)-1H-pyrazole-1-carboxamido)-N,5-dimethyl-4-oxo-N-(pyridin-4-yl)-2,3,4,5-tetrahydrobenzo[b][1,4]oxazepine-7-carboxamide], for which the IC50 in assay [1] and in assay [2] was 10 to 50 nM each time.

With `CN1C(=O)[C@@H](NC(=O)n2cc(Cc3cccc(F)c3)cn2)COc2ccc(OCC(=O)N3CCCC3)cc21` [Example 44, (S)-4-(3-fluorobenzyl)-N-(5-methyl-4-oxo-7-(2-oxo-2-(pyrrolidin-1-yl)ethoxy)-2,3,4,5-tetrahydrobenzo[b][1,4]oxazepin-3-yl)-1H-pyrazole-1-carboxamide], the IC50 in assay [1] and in assay [2] was less than 10 nM each time.

As for `CN1C(=O)[C@@H](NC(=O)n2cc(Cc3cccc(F)c3)cn2)COc2ccc(C(=O)N3CCC(C)(O)CC3)cc21` [Example 5, (S)-4-(3-fluorobenzyl)-N-(7-(4-hydroxy-4-methylpiperidine-1-carbonyl)-5-methyl-4-oxo-2,3,4,5-tetrahydrobenzo[b][1,4]oxazepin-3-yl)-1H-pyrazole-1-carboxamide], the IC50 in assay [1] and in assay [2] was less than 10 nM each time.

As for `CN1C(=O)[C@@H](NC(=O)n2cc(Cc3cccc(F)c3)cn2)COc2ccc(OCc3ccc(F)cn3)cc21` [Example 58, (S)-4-(3-fluorobenzyl)-N-(7-((5-fluoropyridin-2-yl)methoxy)-5-methyl-4-oxo-2,3,4,5-tetrahydrobenzo[b][1,4]oxazepin-3-yl)-1H-pyrazole-1-carboxamide], the IC50 in assay [1] and in assay [2] was less than 10 nM throughout.

In the case of `COC(=O)c1csc(COc2ccc3c(c2)N(C)C(=O)[C@@H](NC(=O)n2cc(Cc4cccc(F)c4)cn2)CO3)n1` [Example 65, Methyl (S)-2-(((3-(4-(3-fluorobenzyl)-1H-pyrazole-1-carboxamido)-5-methyl-4-oxo-2,3,4,5-tetrahydrobenzo[b][1,4]oxazepin-7-yl)oxy)methyl)thiazole-4-carboxylate], the IC50 in assay [1] and in assay [2] was less than 10 nM in each case.

`CN1C(=O)[C@@H](NC(=O)n2cc(Cc3cccc(F)c3)cn2)COc2ccc(OC3CCCCC3)cc21` [Example 30, (S)—N-(7-(cyclohexyloxy)-5-methyl-4-oxo-2,3,4,5-tetrahydrobenzo[b][1,4]oxazepin-3-yl)-4-(3-fluorobenzyl)-1H-pyrazole-1-carboxamide]: the IC50 in assay [1] and in assay [2] was less than 10 nM throughout.
